Experiments:
[1] = Cross Resistance (antiviral activity) with K103N (Non nucleoside reverse transcriptase inhibitor) resistant HIV isolate from cytopathic cell killing assay
[2] = Cross Resistance (antiviral activity) with V108I (Non nucleoside reverse transcriptase inhibitor) resistant HIV isolate v
[3] = Cross Resistance (antiviral activity) with L100I (Non nucleoside reverse transcriptase inhibitor) resistant HIV isolate from cytopathic cell killing assay
[4] = Cross Resistance (antiviral activity) with NL4-3(WT) NNRTI (Non nucleoside reverse transcriptase inhibitor) resistant HIV isolate from cytopathic cell killing assay
[5] = Cross Resistance (antiviral activity) with L74V (nucleoside reverse transcriptase inhibitor) resistant HIV isolate from cytopathic cell killing assay
[6] = Cross Resistance (antiviral activity) with 4xAZT/Y181C (Non nucleoside reverse transcriptase inhibitor) resistant HIV isolate from cytopathic cell killing assay
[7] = Cross Resistance (antiviral activity) with Y188C (Non nucleoside reverse transcriptase inhibitor) resistant HIV isolate from cytopathic cell killing assay
[8] = Cross Resistance (antiviral activity) with A98G (Non nucleoside reverse transcriptase inhibitor) resistant HIV isolate from cytopathic cell killing assay
[9] = Cross Resistance (antiviral activity) with K101E (Non nucleoside reverse transcriptase inhibitor) resistant HIV isolate from cytopathic cell killing assay
[10] = Cross Resistance (antiviral activity) with V179D (Non nucleoside reverse transcriptase inhibitor) resistant HIV isolate from cytopathic cell killing assay
[11] = Cross Resistance (antiviral activity) with V106A (Non nucleoside reverse transcriptase inhibitor) resistant HIV isolate from cytopathic cell killing assay
[12] = Cross Resistance (antiviral activity) with 4xAZT (nucleoside reverse transcriptase inhibitor) resistant HIV isolate from cytopathic cell killing assay
[13] = Cross Resistance (antiviral activity) with Y181C (Non nucleoside reverse transcriptase inhibitor) resistant HIV isolate from cytopathic cell killing assay
[14] = Cross Resistance (antiviral activity) with 4xAZT/L100I (Non nucleoside reverse transcriptase inhibitor) resistant HIV isolate from cytopathic cell killing assay
[15] = Cross Resistance (antiviral activity) with V108I (Non nucleoside reverse transcriptase inhibitor) resistant HIV isolate from cytopathic cell killing assay
[16] = Cross Resistance (antiviral activity) with Y181C (Non nucleoside reverse transcriptase inhibitor) resistant HIV isolate from cytopathic cell killing assay; remark: listed apart in the source
[17] = Cross Resistance (antiviral activity) with K101E (Non nucleoside reverse transcriptase inhibitor) resistant HIV isolate from cytopathic cell killing assay; remark: listed apart in the source
[18] = Cross Resistance (antiviral activity) with A98G (Non nucleoside reverse transcriptase inhibitor) resistant HIV isolate from cytopathic cell killing assay; remark: listed apart in the source
[19] = Cross Resistance (antiviral activity)of the compound with 4xAZT/Y181C (Non nucleoside reverse transcriptase inhibitor) resistant HIV isolate from cytopathic cell killing assay

SMILES	EC50 [1] [µM]	EC50 [2] [µM]	EC50 [3] [µM]	EC50 [4] [µM]	EC50 [5] [µM]	EC50 [6] [µM]	EC50 [7] [µM]	EC50 [8] [µM]	EC50 [9] [µM]	EC50 [10] [µM]	EC50 [11] [µM]	EC50 [12] [µM]	EC50 [13] [µM]	EC50 [14] [µM]	EC50 [15] [µM]	EC50 [16] [µM]	EC50 [17] [µM]	EC50 [18] [µM]	EC50 [19] [µM]
Cc1cccc2c1nc(-c1c(F)cccc1F)n2Cc1c(F)cccc1F	8.1	2.8	0.3	0.5	0.1	3.5	2.3	1.4	16.7	0.5	20	0.1	6	0.2	–	–	–	–	–
Fc1cccc(F)c1Cn1c(-c2c(F)cccc2F)nc2ccccc21	12.9	–	–	1.85	0.46	> 20	11.7	4.75	–	2.3	> 20	0.27	–	0.84	10.4	15.2	> 20	–	–
Fc1cccc(F)c1C1SCc2nc3ccccc3n21 (centres undefined) [3-(2,6-difluorophenyl)-4-thia-2,7-diazatricyclo[6.4.0.0^{2,6}]dodeca-1(12),6,8,10-tetraene]	> 20	–	12.2	1.7	0.7	14.5	–	–	–	3.1	> 20	1.5	16.3	1.7	9.7	–	> 20	17.7	–
CC1Cn2c(=O)[nH]c3cccc(c32)CN1 (stereo not drawn) [(S-(+))-8-Methyl-6,7,8,9-tetrahydro-2H-2,7,9a-triaza-benzo[cd]azulen-1-one]	17.4	–	17.4	0.3	0.2	–	> 17.4	11	–	6.2	12.5	0.3	4.2	> 17.4	2.4	–	17.4	–	2

From BindingDB's records for doi:10.1021/jm970096g (National Cancer Institute-Frederick, 1998)
